Measurements taken from patent publication US20250270222A1, “AP2 ASSOCIATED KINASE 1 INHIBITORS AND USES THEREOF” (Satellos Bioscience Inc., priority 2023, published 2025).

Key:
Format in all cases: biochemical
[1] = molecular target: AAK1 (amino acids T27-A365) (Homo sapiens (Human), UniProt Q2M2I8); experiment: AAK1 pSENs assay; details: ratio of AAK1 pSENs activity to GAK pSENs activity
Method in brief: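 Untagged, biotinylated E. coli-expressed AAK1 at 20 nM preincubated with compound 15 min at 25° C in HEPES pH 7.5 buffer with 10 mM MgCl2 and 1 mM DTT. Reaction started with AQT0759 and ATP, added as 30 uM and 70 uM solutions in equal volume.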

[2] = molecular target: BIKE (amino acids S38-E345) (K320A, K321A) (Homo sapiens (Human), UniProt Q9NSY1, K320A/K321A); experiment: BIKE pSENs assay
BIKE (amino acids S38-E345) (K320A, K321A), sequence (Q9NSY1 38-345 K320A/K321A): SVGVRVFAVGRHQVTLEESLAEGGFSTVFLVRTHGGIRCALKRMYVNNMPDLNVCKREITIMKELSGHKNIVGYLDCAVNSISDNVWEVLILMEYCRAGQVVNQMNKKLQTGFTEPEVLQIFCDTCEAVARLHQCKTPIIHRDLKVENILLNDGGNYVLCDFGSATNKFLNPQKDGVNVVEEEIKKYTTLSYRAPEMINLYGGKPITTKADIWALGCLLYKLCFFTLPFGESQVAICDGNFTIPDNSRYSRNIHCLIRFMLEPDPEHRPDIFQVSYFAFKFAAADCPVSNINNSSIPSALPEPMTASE
Method: The recombinant proteins were independently expressed in Esherichia coli BL21(DE3) cells cultured in Luria-Bertani (LB) medium until OD600 reached 0.6-0.8, then cooled to 15° C., and supplemented with 0.5 mM isopropyl 1-thio-D-galactopyranoside (IPTG) induce protein expression 16 h. Cells were harvested and resuspended in lysis buffer (50 mM HEPES pH 7.5, 500 mM NaCl, 5 mM imidazole, 5% glycerol, 0.5 mM Tris (2-carboxyethyl) phosphine (TCEP), cOmplete Protease Inhibitor Tablet (Roche)) and lysed by microfluidics high pressure homogenizer (UH-06, Union-Biotech). Proteins were purified using Ni-Affinity chromatography (His FF column, Bestchrom) and eluted stepwise in binding buffer with 20-300 mM imidazole. Removal of the hexahistidine tag was performed at 4° C. overnight using recombinant TEV protease and reacted with BirA to obtain the corresponding biotinylated-AAK1. BIKE or GAK proteins. Further separated in the reverse Strep column (Strep-Tactin® XT, IBA). The Biotin elution sample was collected containing untagged biotinylated protein was then purified by Ion-exchange chromatography (Mono Q 10/100 GL, Cytiva) and Size-exclusion chromatography (HiLoad 16/600 Superdex 200 pg, Cytiva). The pure protein was stored in a storage buffer 50 mM HEPES (pH 7.5), 300 mM NaCl, 5% glycerol at −80° C. Protein were characterized by SDS-PAGE. LC-MS and aSEC.
BIKE protein was dissolved at 20 nM in 1× enzyme solution (50 mM HEPES pH7.5, 10 mM MgCl2, 1 mM DTT, 1% glycerol, 0.5 mM EGTA, 0.01% Briji35, 0.02% BSA) and 12.5 ul was incubated with 250 nl DMSO or 250 nl compound in DMSO at 25° C. for 15 min. The reaction was started by addition of 12.5 ul of 30 uM AQT0759 (Assayquant, CSKS-AQT0759B) and 40 uM ATP which were diluted in 1× substrate dilution buffer (50 mM HEPES pH7.5, 10 mM MgCl2. 1 mM DTT, 1% glycerol, 0.5 mM EGTA, 0.01% Briji35).

[3] = molecular target: GAK (amino acids Q25-N335) (Homo sapiens (Human), UniProt O14976); experiment: GAK pSENs assay
GAK (amino acids Q25-N335), sequence (O14976 25-335): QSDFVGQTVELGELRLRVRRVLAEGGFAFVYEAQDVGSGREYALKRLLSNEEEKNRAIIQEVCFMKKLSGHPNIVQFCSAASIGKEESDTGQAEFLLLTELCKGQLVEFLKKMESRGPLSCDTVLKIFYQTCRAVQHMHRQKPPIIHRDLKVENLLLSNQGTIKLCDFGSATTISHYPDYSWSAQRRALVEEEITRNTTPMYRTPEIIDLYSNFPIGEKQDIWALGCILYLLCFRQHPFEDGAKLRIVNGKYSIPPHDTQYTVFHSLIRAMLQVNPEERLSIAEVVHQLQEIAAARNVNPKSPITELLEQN

AAK1 (amino acids T27-A365), sequence (Q2M2I8 27-365): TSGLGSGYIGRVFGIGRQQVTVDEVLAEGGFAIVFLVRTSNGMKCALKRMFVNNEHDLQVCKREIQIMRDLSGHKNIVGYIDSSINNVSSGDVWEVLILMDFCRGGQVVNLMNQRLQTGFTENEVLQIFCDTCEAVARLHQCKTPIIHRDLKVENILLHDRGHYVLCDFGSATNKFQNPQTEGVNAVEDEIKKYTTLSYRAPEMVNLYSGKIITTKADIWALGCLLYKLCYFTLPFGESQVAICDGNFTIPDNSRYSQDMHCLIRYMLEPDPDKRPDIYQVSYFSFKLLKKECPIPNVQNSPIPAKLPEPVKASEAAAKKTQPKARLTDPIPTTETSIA

SMILES	AAK1:GAK pSENs Selectivity [1]	IC50 [2] [nM]	IC50 [3] [nM]
O=C(O[C@H]1CO[C@H]2OCC[C@H]21)N1CCN(c2ccn3ncc(-c4ccncn4)c3n2)CC1 [Compound I-67]	C (C: 0.076-0.15)	> 1500	> 1500
CN(C)CCN1CC[C@@](C)(OC(=O)N2CCN(c3ccn4ncc(-c5cccnc5OC5CC5)c4n3)CC2)C1 [Compound I-53, (R)-1-(2-(dimethylamino)ethyl)-3-(methylpyrrolidin-3-yl)-4-(3-(2-cyclopropoxypyridin-3-yl)pyrazolo[1,5-a]pyrimidin-5-yl)piperazine-1-carboxylate]	A (A: ≤0.015)	501 to 1500	> 1500
CC1(OC(=O)N2CCN(c3ccn4ncc(-c5cccnc5OC5CCC5)c4n3)CC2)COC1 [Compound I-17, (3-Methyloxetan-3-yl) 4-[3-[2-(cyclobutoxy)-3-pyridyl]pyrazolo[1,5-a]pyrimidin-5-yl]piperazine-1-carboxylate]	B (B: 0.016-0.075)	> 1500	> 1500
O=C1NCC[C@@H]1OC(=O)N1CCN(c2ccn3ncc(-c4cccnc4OC4CC4)c3n2)CC1 [Compound I-24, [(3S)-2-Oxopyrrolidin-3-yl]-4-[3-[2-(cyclopropoxy)-3-pyridyl]pyrazolo[1,5-a]pyrimidin-5-yl]piperazine-1-carboxylate]	B (B: 0.016-0.075)	> 1500	> 1500
CN1C[C@@H](OC(=O)N2CCN(c3nc4c(-c5cccnc5OC5CC5)cnn4cc3O)CC2)CC1=O [Compound I-110, [(3S)-1-methyl-5-oxo-pyrrolidin-3-yl]-4-[3-[2-(cyclopropoxy)-3-pyridyl]-6-hydroxy-pyrazolo[1,5-a]pyrimidin-5-yl]piperazine-1-carboxylate]	E (E: >1.00)	> 1500	> 1500
CC1(OC(=O)N2CCN(c3ccn4ncc(-c5cccnc5OCC5CCC5)c4n3)CC2)COC1 [Compound I-19, 3-Methyloxetan-3-yl 4-(3-(2-(cyclobutylmethoxy)pyridin-3-yl)pyrazolo[1,5-a]pyrimidin-5-yl)piperazine-1-carboxylate]	D (D: 0.16-1.00)	> 1500	> 1500
O=C1NCC[C@H]1OC(=O)N1CCN(c2ccn3ncc(-c4cccnc4OC4CC4)c3n2)CC1 [Compound I-23, [(3R)-2-oxopyrrolidin-3-yl]-4-[3-[2-(cyclopropoxy)-3-pyridyl]pyrazolo[1,5-a]pyrimidin-5-yl]piperazine-1-carboxylate]	B (B: 0.016-0.075)	> 1500	> 1500

Now from value to molecule:

AAK1:GAK pSENs Selectivity [1]	IC50 [2] [nM]	IC50 [3] [nM]	SMILES
E (E: >1.00)	> 1500	> 1500	CC(C)Nc1ncccc1-c1cnn2ccc(N3CCN(C(=O)O[C@@H]4CNC(=O)C4)CC3)nc12 [Compound I-47, [(3S)-5-oxopyrrolidin-3-yl]4-[3-[2-(isopropylamino)-3-pyridyl]pyrazolo[1,5-a]pyrimidin-5-yl]piperazine-1-carboxylate]
C (C: 0.076-0.15)	> 1500	> 1500	C[C@@]1(OC(=O)N[C@@H]2CCN(c3ccn4ncc(-c5cccnc5OC5CC5)c4n3)C2)CCNC1 [Compound I-56, (R)-3-methylpyrrolidin-3-yl ((R)-1-(3-(2-cyclopropoxypyridin-3-yl)pyrazolo[1,5-a]pyrimidin-5-yl)pyrrolidin-3-yl)carbamate]
D (D: 0.16-1.00)	> 1500	> 1500	O=C1C[C@H](OC(=O)N2CCN(c3ccn4ncc(-c5cccnc5OC5CC5)c4n3)C[C@H]2C(=O)O)CN1 [Compound I-41-4C, (S)-4-(3-(2-Cyclopropoxypyridin-3-yl)pyrazolo[1,5-a]pyrimidin-5-yl)-1-((((S)-5-oxopyrrolidin-3-yl)oxy)carbonyl)piperazine-2-carboxylic acid]
C (C: 0.076-0.15)	> 1500	> 1500	O=C1C[C@H](OC(=O)N[C@@H]2CCN(c3ccn4ncc(-c5cccnc5OC5CC5)c4n3)C2)CN1 [Compound I-54, [(3S)-5-oxopyrrolidin-3-yl]N-[(3R)-1-[3-[2-(cyclopropoxy)-3-pyridyl]pyrazolo[1,5-a]pyrimidin-5-yl]pyrrolidin-3-yl]carbamate]
D (D: 0.16-1.00)	> 1500	> 1500	CN1CC(Oc2ncccc2-c2cnn3ccc(N4CCN(C(=O)O[C@@H]5CNC(=O)C5)CC4)nc23)C1 [Compound I-44, (S)-5-Oxopyrrolidin-3-yl 4-(3-(2-((1-methylazetidin-3-yl)oxy)pyridin-3-yl)pyrazolo[1,5-a]pyrimidin-5-yl)piperazine-1-carboxylate]
B (B: 0.016-0.075)	> 1500	> 1500	NC(=O)[C@@H]1CN(c2ccn3ncc(-c4cccnc4OC4CC4)c3n2)CCN1C(=O)O[C@@H]1CNC(=O)C1 [Compound I-41-6, (S)-5-Oxopyrrolidin-3-yl-(S)-2-carbamoyl-4-(3-(2-cyclopropoxypyridin-3-yl)pyrazolo[1,5-a]pyrimidin-5-yl)piperazine-1-carboxylate]
E (E: >1.00)	> 1500	> 1500	COc1cn2ncc(-c3cccnc3OC3CC3)c2nc1N1CCN(C(=O)O[C@H]2CC(=O)N(C)C2)CC1 [Compound I-110-9, [(3S)-1-methyl-5-oxo-pyrrolidin-3-yl]-4-[3-[2-(cyclopropoxy)-3-pyridyl]-6-methoxy-pyrazolo[1,5-a]pyrimidin-5-yl]piperazine-1-carboxylate]
C (C: 0.076-0.15)	> 1500	> 1500	CN1C[C@@H](OC(=O)N2CCN(c3nc4c(-c5cccnc5OC5CCCCC5)cnn4cc3F)CC2)CC1=O [Compound I-123, [(3S)-1-methyl-5-oxo-pyrrolidin-3-yl]-4-[3-[2-(cyclohexoxy)-3-pyridyl]-6-fluoro-pyrazolo[1,5-a]pyrimidin-5-yl]piperazine-1-carboxylate]
E (E: >1.00)	> 1500	> 1500	Cc1nn2ccc(N3CCN(C(=O)O[C@H]4CC(=O)N(C)C4)CC3)nc2c1-c1cccnc1OC1CC1 [Compound I-108, [(3S)-1-methyl-5-oxo-pyrrolidin-3-yl]-4-[3-[2-(cyclopropoxy)-3-pyridyl]-2-methyl-pyrazolo[1,5-a]pyrimidin-5-yl]piperazine-1-carboxylate]
D (D: 0.16-1.00)	> 1500	> 1500	O=C1C[C@H](OC(=O)N[C@H]2CCN(c3ccn4ncc(-c5cccnc5OC5CC5)c4n3)C2)CN1 [Compound I-55, (S)-5-oxopyrrolidin-3-yl ((S)-1-(3-(2-cyclopropoxypyridin-3-yl)pyrazolo[1,5-a]pyrimidin-5-yl)pyrrolidin-3-yl)carbamate]
D (D: 0.16-1.00)	> 1500	> 1500	CC(C)(C)OC(=O)N1CC(Nc2ncccc2-c2cnn3ccc(N4CCN(C(=O)O[C@@H]5CNC(=O)C5)CC4)nc23)C1 [Compound I-48]
